Molecular target: T1, TsoI (Thermus scotoductus, UniProt T1RQY5)
T1 construct: gene tsoIRM; native enzyme purified from Thermus scotoductus RFL4; bifunctional REase-MTase, TspDTI subfamily
T1 sequence (T1RQY5 1-1116): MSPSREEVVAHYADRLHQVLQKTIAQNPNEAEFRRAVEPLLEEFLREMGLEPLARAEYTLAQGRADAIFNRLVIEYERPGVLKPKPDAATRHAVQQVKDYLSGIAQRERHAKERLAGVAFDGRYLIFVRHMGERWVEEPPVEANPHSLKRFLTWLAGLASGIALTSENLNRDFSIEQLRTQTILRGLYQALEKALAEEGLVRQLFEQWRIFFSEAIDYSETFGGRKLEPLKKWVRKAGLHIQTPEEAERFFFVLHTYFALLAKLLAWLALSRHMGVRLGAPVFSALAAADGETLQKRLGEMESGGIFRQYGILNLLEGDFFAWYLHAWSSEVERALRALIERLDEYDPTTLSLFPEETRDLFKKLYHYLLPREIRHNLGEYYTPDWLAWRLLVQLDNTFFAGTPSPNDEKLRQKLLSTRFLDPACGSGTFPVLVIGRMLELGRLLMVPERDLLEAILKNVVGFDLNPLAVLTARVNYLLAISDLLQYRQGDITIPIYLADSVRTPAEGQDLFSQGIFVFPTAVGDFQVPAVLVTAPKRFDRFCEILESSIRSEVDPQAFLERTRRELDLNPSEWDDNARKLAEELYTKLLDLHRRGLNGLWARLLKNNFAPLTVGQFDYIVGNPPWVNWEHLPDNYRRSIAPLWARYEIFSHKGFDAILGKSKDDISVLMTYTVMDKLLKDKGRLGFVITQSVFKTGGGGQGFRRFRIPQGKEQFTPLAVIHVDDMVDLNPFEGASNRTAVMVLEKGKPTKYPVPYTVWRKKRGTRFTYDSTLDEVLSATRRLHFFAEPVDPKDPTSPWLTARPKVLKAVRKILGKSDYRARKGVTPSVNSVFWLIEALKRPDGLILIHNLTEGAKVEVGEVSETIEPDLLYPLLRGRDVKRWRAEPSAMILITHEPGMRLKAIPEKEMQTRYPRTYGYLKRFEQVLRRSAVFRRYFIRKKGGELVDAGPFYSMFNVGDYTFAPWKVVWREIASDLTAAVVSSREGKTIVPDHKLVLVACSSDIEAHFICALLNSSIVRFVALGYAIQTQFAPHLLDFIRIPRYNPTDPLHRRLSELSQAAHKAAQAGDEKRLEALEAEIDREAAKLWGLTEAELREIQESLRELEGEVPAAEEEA
Assay: DNA cleavage assay, agarose gel (stimulation of secondary-cognate-specificity cleavage)
Format: biochemical
Conditions: pUC19 supercoiled DNA; 500 uM compound (31.25-500 uM tested); 10 mM Tris-HCl pH 7.5, 10 mM MgCl2, 50 mM NaCl, 55 °C, 1 h; activator, presumed SAM-binding motif

SMILES: Nc1ncnc2c1ncn2[C@@H]1O[C@H](CSC[C@H](N)C(=O)O)[C@@H](O)[C@H]1O [SAC, S-adenosyl-L-cysteine]
- DNA cleavage assay, agarose gel (stimulation of secondary-cognate-specificity cl): efficiency of TsoI SCS cleavage is significantly stimulated by high concentrations of SAC

Reference: publication PMC6449304, “Novel parameter describing restriction endonucleases: Secondary-Cognate-Specificity and chemical stimulation of TsoI leading to substrate specificity change” (Applied Microbiology and Biotechnology, 2019)
